Values of other authors as cited in patent US20250171456A1, “P[…] AND THEIR THERAPEUTIC USES” (priority 2022, published 2025).

Key:
[1] = humans, after oral administration of psilocybin (Passie, 2002)
[2] = Ballesteros, 2006

For `CN(C)CCc1c[nH]c2cccc(O)c12` [Psilocin], the “time until psilocin is detectable in significant amounts in the plasma” value [1] is given as 20 to 40 min.
For `CN(C)CCc1c[nH]c2cccc(OP(=O)(O)O)c12` [Psilocybin], the “solubility in water relative to psilocin” value [2] is given as “more soluble in water than psilocin”.
